The record followed here is ChEMBL document CHEMBL1201862, “PubChem BioAssay data set” (2004).

Each structure is given as a SMILES string. Activity calls are given as the source filed them.

Assay [1] addresses Ubiquitin carboxyl-terminal hydrolase BAP1 (Homo sapiens, UniProt Q92560). Put plainly: inhibition of BAP1 ubiquitin hydrolase activity – biochemical, dose response (AID 714). It is filed as functional.
The target in assay [2] is Induced myeloid leukemia cell differentiation protein Mcl-1 (Homo sapiens, UniProt Q07820). The assay can be described thus: blockers of MCL1 binding to BIM peptide – biochemical, fluorescence polarization, BIM-BH3 peptide, 1536-well, dose response (AID 2217). For orientation: Fluorescence polarisation rises when a labelled molecule tumbles more slowly, as on binding a larger partner.

The target in another assay is Bcl-2-like protein 1 (Homo sapiens, UniProt Q07817). Put plainly: blockers of BCLXL peptide binding – biochemical, fluorescence polarization, 1536-well, selectivity assay for MCL1 inhibitor project, dose response (AID 2218).
The target in assay [3] is T1, Endoribonuclease toxin MazF (Escherichia coli K-12, UniProt P0AE70).
T1 sequence (P0AE70 whole entry): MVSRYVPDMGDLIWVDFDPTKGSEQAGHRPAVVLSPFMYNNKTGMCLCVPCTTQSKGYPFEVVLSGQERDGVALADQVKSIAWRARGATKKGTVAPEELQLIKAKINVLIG
The assay can be described thus: activation of MazEF endoribonuclease cleavage – biochemical, fluorescence, single-stranded RNA substrate, uHTS hits, dose response (AID 588481). It is filed as functional.

In assay [4] the target is T1, Endoribonuclease toxin MazF. Put plainly: substrate-only fluorescence increase artefacts – biochemical, single-stranded RNase substrate, counter-screen for MazEF activator project, dose response (AID 588502). It is filed as functional.
Another assay deals with Albumin (Bos taurus, UniProt P02769). Put plainly: Counterscreen for inhibitors of T-cell receptor (TCR)-CD3 interaction: Fluorescence-based biochemical high throughput dose response assay to identify inhibitors of T-cell receptor (TCR)-CD3 interaction using a TAMRA-labeled BSA probe. It is filed as functional. Background: The purpose of a counterscreen is to sort out artefacts and off-target activity.

Another assay concerns the target Large T antigen (Simian virus 40, UniProt P03070). Format: functional, Betapolyomavirus macacae.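 Note: Confirmatory-stage PubChem screen for compounds that inhibit SV40 T antigen.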
Assay [5] has as its target T2, Mannose-6-phosphate isomerase (Homo sapiens, UniProt P34949).
T2 sequence (P34949 whole entry): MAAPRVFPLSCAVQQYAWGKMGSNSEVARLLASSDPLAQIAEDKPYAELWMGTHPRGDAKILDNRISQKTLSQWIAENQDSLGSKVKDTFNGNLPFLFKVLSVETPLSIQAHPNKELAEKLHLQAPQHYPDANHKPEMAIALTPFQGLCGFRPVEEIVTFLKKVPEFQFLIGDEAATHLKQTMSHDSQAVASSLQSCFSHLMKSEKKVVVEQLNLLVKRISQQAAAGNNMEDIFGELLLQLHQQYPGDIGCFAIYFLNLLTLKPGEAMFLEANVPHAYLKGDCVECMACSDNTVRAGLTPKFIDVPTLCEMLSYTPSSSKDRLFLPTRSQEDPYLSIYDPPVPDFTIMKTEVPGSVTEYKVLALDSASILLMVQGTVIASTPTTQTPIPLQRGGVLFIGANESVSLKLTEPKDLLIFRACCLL
Put plainly: MPI enzyme activity inhibition – biochemical, fluorescence intensity, coupled assay, primary screen (AID 1209).

The target of assay [6] is T2, Mannose-6-phosphate isomerase. The assay can be described thus: MPI inhibition at elevated mannose 6-phosphate – biochemical, fluorescence intensity, high mannose 6-phosphate, primary screen (AID 1220).
The target of assay [7] is FAD-linked sulfhydryl oxidase ALR (Homo sapiens, UniProt P55789). Put plainly: ALR-catalysed DTT oxidation blockers – biochemical, H2O2 detection, luminescence, cherry-pick, dose response (AID 493248).
The target of another assay is Ephrin type-A receptor 4 (Mus musculus, UniProt Q03137). The assay can be described thus: EphA4 ligand-binding antagonists – biochemical, colorimetric, mouse EphA4, primary screen (AID 689). Format: functional.
Assay [8] concerns the target T3, Oxysterols receptor LXR-beta (Homo sapiens, UniProt P55055).
T3 sequence (P55055 whole entry): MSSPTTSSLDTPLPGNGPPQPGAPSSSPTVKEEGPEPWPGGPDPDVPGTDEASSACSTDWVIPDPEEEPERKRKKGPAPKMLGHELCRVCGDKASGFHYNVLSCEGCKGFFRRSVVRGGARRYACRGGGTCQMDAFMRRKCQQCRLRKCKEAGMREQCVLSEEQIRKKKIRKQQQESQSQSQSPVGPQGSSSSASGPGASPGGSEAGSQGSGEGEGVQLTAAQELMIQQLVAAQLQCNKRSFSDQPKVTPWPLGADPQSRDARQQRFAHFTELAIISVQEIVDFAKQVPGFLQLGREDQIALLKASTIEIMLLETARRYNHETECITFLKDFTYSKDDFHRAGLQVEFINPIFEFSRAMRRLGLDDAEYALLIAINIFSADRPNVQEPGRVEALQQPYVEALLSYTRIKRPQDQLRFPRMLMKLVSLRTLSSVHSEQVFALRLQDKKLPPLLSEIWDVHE
Format: functional, cell-based.

The target of assay [9] is T3, Oxysterols receptor LXR-beta. Format: functional, cell-based. The source holds these as a separate data set.
Assay [10] can be described thus: rise of 2N DNA cells, HeLa – IC50, dose response (AID 1117349). It is filed as functional, cell-based.
Assay [11] in a line: rise of 4N DNA cells, HeLa – IC50, dose response (AID 1117351). It is filed as functional, cell-based.
The target in another assay is T4, Streptokinase A (Streptococcus pyogenes serotype M1, UniProt P10520).
T4 sequence (P10520 whole entry): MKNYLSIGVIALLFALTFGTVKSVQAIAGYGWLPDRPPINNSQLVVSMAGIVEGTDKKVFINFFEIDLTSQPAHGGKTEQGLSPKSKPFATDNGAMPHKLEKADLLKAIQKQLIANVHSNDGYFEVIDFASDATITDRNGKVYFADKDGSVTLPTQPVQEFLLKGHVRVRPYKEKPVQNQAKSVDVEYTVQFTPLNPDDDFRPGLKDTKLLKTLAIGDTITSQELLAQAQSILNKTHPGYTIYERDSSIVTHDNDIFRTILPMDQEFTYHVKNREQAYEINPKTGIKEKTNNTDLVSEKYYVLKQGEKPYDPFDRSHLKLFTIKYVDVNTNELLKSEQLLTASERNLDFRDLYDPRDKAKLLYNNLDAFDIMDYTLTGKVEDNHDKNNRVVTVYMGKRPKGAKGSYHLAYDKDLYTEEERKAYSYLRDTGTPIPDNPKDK
Put plainly: Absorbance Microorganism-Based Dose Response Follow up to Identify Inhibitors of Streptokinase Expression. [Related pubchem assays: 1677 (Project Summary), 1915, 1914, 1902 (Retest at Dose), 1900 (Counter Screen), 1662 (Primary HTS)]. It is filed as functional, Streptococcus pyogenes M1 GAS.

The test system of the next assay is Streptococcus. Put plainly: GAS bacterial viability reduction – luminescence, BacTiter-Glo, strain UMAA2166, counter-screen for streptokinase expression inhibitor project, dose response (AID 2477). It is filed as functional, organism-based.
Assay [12] can be described thus: Orthopox viral replication plaque formation Measured in Cell-Based and Microorganism Combination System Using Imaging - 2142-05_Inhibitor_Dose_DryPowder_Activity. It is filed as functional.

Sequence of Induced myeloid leukemia cell differentiation protein Mcl-1 (Q07820 whole entry): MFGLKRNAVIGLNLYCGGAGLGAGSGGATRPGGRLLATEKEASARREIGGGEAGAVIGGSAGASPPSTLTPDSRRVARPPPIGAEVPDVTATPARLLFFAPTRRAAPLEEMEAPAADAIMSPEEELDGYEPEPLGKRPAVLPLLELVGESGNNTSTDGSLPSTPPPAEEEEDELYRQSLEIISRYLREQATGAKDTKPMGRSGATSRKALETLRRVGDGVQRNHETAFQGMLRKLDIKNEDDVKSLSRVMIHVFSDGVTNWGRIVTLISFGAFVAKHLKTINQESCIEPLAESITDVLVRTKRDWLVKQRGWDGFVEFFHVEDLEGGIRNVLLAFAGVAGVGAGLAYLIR
Sequence of Albumin (P02769 whole entry): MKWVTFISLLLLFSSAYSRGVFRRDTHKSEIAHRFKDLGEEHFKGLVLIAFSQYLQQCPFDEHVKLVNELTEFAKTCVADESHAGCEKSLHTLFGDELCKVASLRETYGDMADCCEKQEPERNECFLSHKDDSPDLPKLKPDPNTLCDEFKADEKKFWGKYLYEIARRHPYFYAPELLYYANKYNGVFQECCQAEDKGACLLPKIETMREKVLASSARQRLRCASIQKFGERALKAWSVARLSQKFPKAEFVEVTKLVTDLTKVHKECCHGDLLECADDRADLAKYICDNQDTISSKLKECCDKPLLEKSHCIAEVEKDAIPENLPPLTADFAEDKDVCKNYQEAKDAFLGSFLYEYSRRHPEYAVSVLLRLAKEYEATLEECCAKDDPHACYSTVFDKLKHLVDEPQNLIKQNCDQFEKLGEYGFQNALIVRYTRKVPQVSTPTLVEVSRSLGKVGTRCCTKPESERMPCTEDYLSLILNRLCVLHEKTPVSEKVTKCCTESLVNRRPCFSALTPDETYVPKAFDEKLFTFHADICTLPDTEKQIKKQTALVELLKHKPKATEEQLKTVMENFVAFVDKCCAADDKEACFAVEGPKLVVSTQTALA
Sequence of Bcl-2-like protein 1 (Q07817 whole entry): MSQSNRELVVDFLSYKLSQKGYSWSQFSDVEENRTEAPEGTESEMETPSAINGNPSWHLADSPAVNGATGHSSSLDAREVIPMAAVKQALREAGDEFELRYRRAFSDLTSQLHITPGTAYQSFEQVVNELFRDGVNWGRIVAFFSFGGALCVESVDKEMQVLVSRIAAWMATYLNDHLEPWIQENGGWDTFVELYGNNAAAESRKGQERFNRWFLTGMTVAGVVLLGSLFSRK
Sequence of FAD-linked sulfhydryl oxidase ALR (P55789 whole entry): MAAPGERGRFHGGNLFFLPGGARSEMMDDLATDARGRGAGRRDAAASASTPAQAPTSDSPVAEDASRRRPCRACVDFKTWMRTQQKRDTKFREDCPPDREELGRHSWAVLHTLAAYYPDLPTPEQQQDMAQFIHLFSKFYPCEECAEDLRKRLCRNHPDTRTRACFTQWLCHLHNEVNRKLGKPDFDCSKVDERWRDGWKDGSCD
Sequence of Large T antigen (P03070 whole entry): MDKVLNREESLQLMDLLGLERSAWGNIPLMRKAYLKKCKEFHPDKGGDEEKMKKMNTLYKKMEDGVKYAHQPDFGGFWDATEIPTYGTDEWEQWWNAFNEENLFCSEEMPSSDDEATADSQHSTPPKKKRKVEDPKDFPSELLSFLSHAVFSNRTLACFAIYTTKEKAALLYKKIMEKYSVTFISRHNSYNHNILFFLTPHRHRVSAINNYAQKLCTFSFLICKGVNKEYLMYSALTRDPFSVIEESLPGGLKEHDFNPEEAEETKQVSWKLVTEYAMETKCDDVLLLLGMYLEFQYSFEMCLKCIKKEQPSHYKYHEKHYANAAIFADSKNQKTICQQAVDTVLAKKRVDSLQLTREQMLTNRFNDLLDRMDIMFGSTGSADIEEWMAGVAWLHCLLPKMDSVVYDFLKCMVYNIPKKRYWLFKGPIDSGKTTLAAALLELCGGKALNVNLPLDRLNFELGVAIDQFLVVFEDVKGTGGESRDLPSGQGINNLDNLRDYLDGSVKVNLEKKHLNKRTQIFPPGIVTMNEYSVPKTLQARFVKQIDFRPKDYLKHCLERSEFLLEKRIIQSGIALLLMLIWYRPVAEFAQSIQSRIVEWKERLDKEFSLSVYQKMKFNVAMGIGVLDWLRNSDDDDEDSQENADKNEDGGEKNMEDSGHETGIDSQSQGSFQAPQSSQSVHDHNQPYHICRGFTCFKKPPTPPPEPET
Sequence of Ubiquitin carboxyl-terminal hydrolase BAP1 (Q92560 whole entry): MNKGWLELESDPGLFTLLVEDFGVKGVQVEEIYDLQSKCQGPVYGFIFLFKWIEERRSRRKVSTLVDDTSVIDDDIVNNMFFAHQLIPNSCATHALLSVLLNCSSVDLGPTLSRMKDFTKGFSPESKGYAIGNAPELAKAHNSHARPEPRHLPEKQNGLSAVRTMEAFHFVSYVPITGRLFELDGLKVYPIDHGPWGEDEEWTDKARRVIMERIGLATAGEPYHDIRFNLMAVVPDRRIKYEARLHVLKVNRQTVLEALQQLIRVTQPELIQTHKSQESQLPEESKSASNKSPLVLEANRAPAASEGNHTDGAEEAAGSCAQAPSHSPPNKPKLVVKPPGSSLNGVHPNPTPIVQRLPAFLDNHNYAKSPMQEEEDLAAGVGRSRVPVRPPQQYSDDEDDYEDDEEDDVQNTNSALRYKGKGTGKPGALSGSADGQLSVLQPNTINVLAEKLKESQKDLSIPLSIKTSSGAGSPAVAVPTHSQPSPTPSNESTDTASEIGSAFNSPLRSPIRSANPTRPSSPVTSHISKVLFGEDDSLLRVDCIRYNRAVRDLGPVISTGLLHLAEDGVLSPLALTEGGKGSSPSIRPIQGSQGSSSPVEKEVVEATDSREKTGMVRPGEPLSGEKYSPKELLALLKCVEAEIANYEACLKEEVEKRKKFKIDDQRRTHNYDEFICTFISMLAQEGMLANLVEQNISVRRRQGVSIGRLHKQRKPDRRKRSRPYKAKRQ
Sequence of Ephrin type-A receptor 4 (Q03137 whole entry): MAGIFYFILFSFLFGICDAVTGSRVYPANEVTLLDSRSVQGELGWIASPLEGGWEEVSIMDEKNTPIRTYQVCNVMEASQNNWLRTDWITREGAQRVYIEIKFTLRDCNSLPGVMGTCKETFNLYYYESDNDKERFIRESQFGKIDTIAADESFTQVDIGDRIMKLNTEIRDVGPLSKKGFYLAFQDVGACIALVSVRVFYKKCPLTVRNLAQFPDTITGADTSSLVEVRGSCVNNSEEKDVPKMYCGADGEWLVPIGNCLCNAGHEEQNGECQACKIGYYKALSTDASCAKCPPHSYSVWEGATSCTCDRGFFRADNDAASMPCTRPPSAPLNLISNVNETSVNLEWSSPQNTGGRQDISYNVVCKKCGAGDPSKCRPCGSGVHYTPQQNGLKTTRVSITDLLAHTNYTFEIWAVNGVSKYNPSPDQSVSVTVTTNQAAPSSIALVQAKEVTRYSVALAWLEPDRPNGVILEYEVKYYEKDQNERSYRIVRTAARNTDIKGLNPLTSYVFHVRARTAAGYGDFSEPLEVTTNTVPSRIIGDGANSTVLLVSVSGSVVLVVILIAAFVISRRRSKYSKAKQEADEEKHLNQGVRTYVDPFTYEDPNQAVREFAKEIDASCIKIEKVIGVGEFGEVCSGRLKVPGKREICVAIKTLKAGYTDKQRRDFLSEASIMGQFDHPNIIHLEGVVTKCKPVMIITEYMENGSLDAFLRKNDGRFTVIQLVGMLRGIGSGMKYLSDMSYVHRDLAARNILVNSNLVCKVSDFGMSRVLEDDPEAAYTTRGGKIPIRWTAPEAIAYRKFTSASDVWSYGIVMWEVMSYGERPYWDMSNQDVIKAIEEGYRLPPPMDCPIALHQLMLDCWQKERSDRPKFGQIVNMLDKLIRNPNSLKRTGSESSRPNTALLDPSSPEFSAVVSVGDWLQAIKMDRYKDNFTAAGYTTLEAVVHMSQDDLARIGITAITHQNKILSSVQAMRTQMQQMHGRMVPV

The term IC50 denotes the concentration at which inhibition is half-maximal. Turning to `O=C(CSc1nc2c(c(=O)n1-c1ccc(Cl)cc1)SCC2)Nc1ccc2c(c1)OCCO2`, the IC50 in assay [1] is reported as 38.6 µM (not active).
For orientation: EC50 means the concentration at which the effect is half-maximal. With `O=c1cc(-c2ccc(O)c(O)c2)oc2c1ccc1ccccc12`, the IC50 is 23.8 µM (not active) in assay [2], > 109 µM (not active) at Bcl-2-like protein 1 and > 94.1 µM (inactive) on Albumin. Besides, the EC50 in assay [3] and in assay [4] was > 99 µM (inactive) in each case.
A word on the AC50: it is the concentration giving half of the maximal activity seen. As for `CCn1c(=O)n(CC)c2cc(N)ccc21`, the IC50 on Large T antigen was 14 µM (active); in [5], > 50 µM (not active); in assay [6] it was > 50 µM (not active). Further, the AC50 in assay [7] was 0.754 µM (active).
For the molecule `CCCCN(CCCC)c1nc2ccccc2nc1/C(C#N)=C(/O)OCC`, the IC50 at Ephrin type-A receptor 4 is 5.65 µM (active).
Turning to `O=c1[nH]c(=O)n([C@H]2C[C@H](O)[C@@H](CO)O2)cc1Br` [BROXURIDINE], the EC50 in assay [8] is > 67.5 µM (inactive); in assay [9], > 67.6 µM (inactive); in the assay “cells”, > 67.5 µM (inactive). In addition, the IC50 in assay [10] and in [11] was > 10 µM (inactive) throughout.
For the molecule `COc1ccc(-c2nc(OC)c3ccccc3n2)cc1`, the figures for the EC50 at Streptokinase A and in the assay on Streptococcus were 63.2 µM (active) and > 500 µM (not active), respectively.
Regarding `CO[C@H]1CN(C)C(=O)c2ccc(NC(=O)c3ccc(F)cc3)cc2OC[C@H](C)N(C(=O)c2ccc(F)cc2)C[C@@H]1C`, the AC50 in [12] was 5.72 µM (active).
